Test results as given in patent US6555330B1, “Oncogene-induced apoptosis in drug-resistant cells” (Cold Spring Harbor Laboratory, priority 1996, dated 2003).

Key:
[1] = test system: Interleukin-1β-converting enzyme-like proteases (ILPs); assay: Fluorescent substrate (DEVD-AFC) assay for ILP activity in 293 cell extracts; format: biochemical, human; conditions: for free AFC (cleaved DEVD-AFC) generated in one minute by one milligram of extract: 293 cell extracts, vanadate 5 mM, Granzyme B 2 U/ul added before shift; for free AFC (cleaved DEVD-AFC) generated in one minute by one milligram of extract / rate of ILP activation (dose response, free AFC generated per minute per milligram of extract): 60 minutes at 37° C.; for rate of ILP activation (dose response, free AFC generated per minute per milligram of extract): dialyzed S-100 extracts of 293 cells, various concentrations
Protocol: Interleukin-1β-converting enzyme-like proteases activity was measured by monitoring the cleavage of DEVD-AFC. This fluorogenic substrate DEVD-AFC consists of the peptide sequence (DEVD) which resembles the cleavage site in proteins that are degraded by ILPs, conjugated to amino-trifluoromethyl coumarin (AFC). When the peptide and the AFC molecule are attached the substrate is not fluorescent, when it is free it is fluorescent. […] The activated ILPs cleave the bond between the peptide and the AFC, resulting in increased fluorescence, which is detected using a fluorimeter. The assay is performed in a microtiter plate using the format essentially as described by Thomberry, N. A., Methods in Enzymology, 244:615-631 (1994). […] This period of time ranges from 0 to 90 minutes. During the preincubation period of a modulation assay, compounds that are to be assessed for their ability to activate or inhibit apoptosis are also introduced into the sample. Depending upon the purpose of the experiment the test compound may be present for the entire period of the preincubation or only a portion of the time. In order to measure the level of ILP activation 1 μl of extract is added to 200 μl of assay buffer (50 mM PIPES/KOH pH 7.0, 0.1 mM EDTA, 1 mM DTT, 10% glycerol) containing 20 μM DEVD-AFC (Enzyme Systems products). The release of free AFC was measured with a fluorescence plate reader, Cytofluor (Perspective Biosystems). The amount of fluorescence resulting from samples assayed in the presence and absence of potential modulatory compounds is compared to appropriate control samples and expressed as the number of free AFC molecules generated in one minutes by one milligram of cell extract.
Identifying agents that modulate the apoptotic machinery of 293 cellular extracts Dialyzed S-100 extracts of 293 cells were incubated for 60 minutes at 37° C. with various concentrations of either ATP, EDTA or sodium ortho-vanadate. ILP activity was then measured using the fluorogenic substrate assay. (FIGS. 8A-C).
To determine whether bcl-2 blocks ILP activation or inhibits the enzymatic activity of ILPs, bcl-2 was added to extracts either before or after incubation at 37° C. and monitored ILP activity by a quantitative enzymatic assay. Bc1-2 (40 μg/ml) was added to 293 extract either before incubation at 37° C. or after 15 minutes of the incubation (additions indicated by arrows). ILP activity against DEVD-AFC was measured as described above (FIG. 3).
As described below, the system described above can be used to screen for compounds that effect ILP activation. […] Vanadate (0.1, l and 5 mM) was added to extracts from 293 cells and the extracts then shifted to 37° C. and incubated for 30 minutes. The rate of DEVD-AFC proteolysis was then determined.
Vanadate (5 mM) was added to extracts either before 60 minutes incubation at 37° C. or after 60 minutes incubation. The extracts were then incubated for a further 60 minutes and the rate of DEVD-AFC proteolysis determined.
Extracts from 293 cells were incubated for 60 minutes at 37° C. Where indicated vanadate (5 mM), Granzyme B (2 U/ul ) or DEVD-CMK (10 μM) was added before the extract was shifted to 37° C. After 60 minutes the rate of DEVD-AFC proteolysis was determined. Data is representative of two experiments. In parallel, nuclei (1×10^7/ml) were incubated at 37° C. for 60 minutes with extracts treated with vanadate (5 mM), Granzyme B (2 U/ul) or DEVD-CMK (10 μM) where indicated. Nuclei were also incubated at 4° C. with extract or at 37° C. with Granzyme B but no extract.
Extracts were incubated at 37° C. and vanadate was added at the indicated times (arrows) to a final concentration of 5 mM. The rate of DEVD-AFC proteolysis in untreated extract (closed symbols) or vanadate treated extracts (open symbols) was measured at the indicated times. Data is representative of three experiments.

[2] = test system: apoptotic machinery of 293 cell extracts; assay: In vitro apoptosis of isolated HeLa nuclei in 293 cell extracts; parameters: species or system human
Protocol: Extracts were prepared essentially as described (Lazebnik, Y. A., et al., J. Cell. Biol., 123:7-22 (1993)). 293 cells (5-7×10^5 cells/ml)were washed and gently resuspended in 10× pellet volumes of extract preparation buffer (50 mM PIPES pH 7.0, 50 mM KCl, 5 mM EGTA, 2mM MgCl2, 1 mM DTT) plus 0.1 mM PMSF, 10 μg/ml cytochalasin B and 2 μg/ml each of chymostatin, pepstatin, leupeptin and antipain. Cells were immediately centrifuged (200 g, 5 minutes) and lysed by three cycles of freeze/thawing with liquid nitrogen. The lysate was centrifuged at 100,000 g for two hours, giving a cell extract. […]
Intact cells or isolated nuclei were fixed with 4% paraformaldehyde, stained with DAPI (1μg/ml) and examined by fluorescence microscopy. The percentage of cells showing apoptotic nuclear morphology was determined. […]
293 cell extracts (10 μl) were incubated with isolated HeLa nuclei (1×10^5) for 60 minutes at 37° C. either alone or with biotin-YVAD-AMK (100 μM), an inhibitor of ILPs. After incubation aliquots of the reaction were fixed, stained with DAPI and examined by fluorescence microscopy.
Extracts from E1A/E1B transformed MEFs or 293 cells (10 μl) were incubated with bcl-2 (40 μg/ml) for 10 minutes at 37° C. prior to further incubation with HeLa nuclei (1×10^5) for 60 minutes. Nuclei were fixed, stained with DAPI and examined by fluorescence microscopy. […]

Jurkat cells = assay: Apoptotic nuclear morphology (DAPI) in intact Jurkat cells; format: cell-based; conditions: etoposide 50 μM
Protocol: (§1) Intact cells or isolated nuclei were fixed with 4% paraformaldehyde, stained with DAPI (1μg/ml) and examined by fluorescence microscopy. The percentage of cells showing apoptotic nuclear morphology was determined. Images were acquired using a Photometrics PXL CCD camera (Photometrics Ltd) controlled by Oncor Image software (Oncor Inc.). Figures were prepared using Adobe Photoshop software. Jurkat cells (1×10^5/ml) (FIG. 1A) or 293 cells (1×10^5/ml) (FIG. 1B) were incubated with or without etoposide (50 μM). Cells were fixed at the indicated times and stained with DAPI. The percentage of cells with apoptotic nuclear morphology was determined. Samples were also taken to assess ILP activation.

293 cells = assay: Apoptotic nuclear morphology (DAPI) in intact 293 cells; format: cell-based, human; conditions: etoposide 50 μM
Protocol: as §1

[3] = test system: ICE-like proteases (ILPs) in Jurkat cells; assay: Affinity labeling of active ILPs in Jurkat cells; format: cell-based; conditions: Jurkat cells treated with etoposide
Protocol: (§2) Cells (2×10^6) were centrifuged (200 g, 5 minutes) and resuspended in […] MDB containing 10 μM biotinylated YVAD.AMK (plus protease inhibitors and […] cytochalasin B) and lysed by freeze/thawing for three cycles. The lysate was centrifuged (16,000 g, 20 minutes, 4° C.) and the supernatant incubated at 37° C. for 4 minutes to label active ILPs. The protein concentration was determined (Bradford assay), an equal volume of 2×SDS sample buffer added and the sample boiled for 5 minutes.
(§3) Extracts were mixed with an equal volume of MDB containing 20 μM biotinylated YVAD.AMK and incubated at 37° C. for 4 minutes to label active ILPs. Labeling was stopped by adding an equal volume of 2×SDS sample buffer and samples were subjected to 15% SDS-PAGE. Proteins were transferred to a PVDF Immobilon P^SQ membrane (Millipore Corp.) and the membrane washed (methanol, 5 minutes) and dried (80° C., 15 minutes). The blot was incubated with avidin (1 μg/ml) followed by Biotin-horse radish peroxidase (0.05 μg/ml), and labeled proteins detected by ECL (Amersham Inc.).
(§4) To avoid relying solely on the morphological manifestations of apoptosis, whether activation of ILPs, a biochemical hallmark of apoptosis, occurred in 293 cells treated with etoposide was also determined. Jurkat cells (2×10^6) or 293 cells (2×10^6) were incubated with biotin-YVAD-AMK, an affinity probe that labels active ILPs.

[4] = test system: ICE-like proteases (ILPs) in 293 cells; assay: Affinity labeling of active ILPs in 293 cells; format: cell-based, human; conditions: 293 cells treated with etoposide
Protocol: as §2, §3, §4

[5] = test system: ICE-like proteases (ILPs), cpp32; assay: Affinity labeling of ILPs and cpp32 immunoblotting in 293 cell extracts; format: biochemical, human; conditions: Granzyme B added to 293 extracts treated with vanadate
Protocol: as §3
Affinity blots were re-probed to detect cpp32. These membranes were soaked in methanol for 5 minutes to inactivate horseradish peroxidase, dried and re-probed with a monoclonal antibody to cpp32 (Transduction Laboratories) followed by incubation with a secondary antibody conjugated to horseradish peroxidase. The antigen-antibody complex was detected by ECL (Amersham Inc).
Prevention of apoptosis was achieved only if extracts were pre-incubated with bcl-2 before addition of nuclei. […] The same extracts were incubated alone, with buffer or with bcl-2 (40 μg/ml) for 70 minutes at 37° C. and active ILPs labeled with biotin YVAD.AMK (10 μM). Samples were subjected to 15% SDS-PAGE, transferred to a PVDF membrane and labeled ILPs visualized by ECL.

With `[Na+].[Na+].[Na+].[O]=[V]([O-])([O-])[O-]` [vanadate, sodium ortho vanadate] the “free AFC (cleaved DEVD-AFC) generated in one minute by one milligram of extract” value [1] was 1.4 pmol/min, the “rate of ILP activation (dose response, free AFC generated per minute per milligram of extract)” value [1] was “decreases the rate of ILP activation” and the “ILP activity (rate of DEVD-AFC proteolysis)” value ([1]; vanadate 5 mM added after 60 minutes incubation at 37° C. (ILPs already active), further 60 minutes) was “had no effect on ILP activity”. The “process of ILP activation (rate of DEVD-AFC proteolysis)” value ([1]; vanadate 5 mM added at different times after shift of 293 extract to 37° C.) was “arrested the process of ILP activation irrespective of when it was added”, the “inhibition of ILP activation” value ([1]; vanadate 5 mM added before shift to 37° C., all extracts) was “complete inhibition” and the “rate of DEVD-AFC proteolysis” value ([1]; vanadate 0.1, 1 and 5 mM added before shifting 293 extract to 37° C., 30 minutes) was “inhibited cleavage of DEVD-AFC”.

“biotin-YVAD-acyloxymethylketone [biotin YVAD-amk]” was tested, and the “nuclear morphological changes of apoptosis in HeLa nuclei” value ([2]; 293 cell extract, inhibitor 100 μM, 60 minutes at 37° C.) was “prevented the nuclear morphological changes of apoptosis”.

With `Nc1ncnc2c1ncn2[C@@H]1O[C@H](COP(=O)(O)OP(=O)(O)OP(=O)(O)O)[C@@H](O)[C@H]1O` [ATP] the “rate of ILP activation (dose response, free AFC generated per minute per milligram of extract)” value [1] was “increases the rate of ILP activation”.

`COc1cc([C@@H]2c3cc4c(cc3[C@@H](O[C@@H]3O[C@@H]5CO[C@@H](C)O[C@H]5[C@H](O)[C@H]3O)[C@H]3COC(=O)[C@H]23)OCO4)cc(OC)c1O` [etoposide] was tested, and the “induction of apoptotic morphology” value (Jurkat cells) was “sufficient to kill Jurkat cells”, the “induction of apoptotic morphology” value (293 cells) was “no morphological signs of apoptosis” and the “active ILPs detected by biotin-YVAD-AMK affinity labeling” value [3] was “multiple active ILPs were detected”. The “active ILPs detected by biotin-YVAD-AMK affinity labeling” value [4] was “No active ILPs were detected”.

“Granzyme B: a serine protease which activates ILPs directly” was tested, and the “effect on vanadate inhibition of in vitro apoptosis (nuclei)” value ([2]; Granzyme B 2 U/ul added to 293 extracts treated with vanadate 5 mM, nuclei 60 minutes at 37° C.) was “completely overcame vanadate inhibition”, the “free AFC (cleaved DEVD-AFC) generated in one minute by one milligram of extract” value [1] was 0 pmol/min and the “effect on vanadate inhibition of ILP activity” value ([1]; Granzyme B 2 U/ul added to 293 extracts treated with vanadate 5 mM) was “completely overcame vanadate inhibition”. The “ILP activation and cpp32 processing (affinity labeling, immuno-blotting)” value [5] was “resulted in ILP activation and cpp32 processing”.

With `O=C(O)CN(CCN(CC(=O)O)CC(=O)O)CC(=O)O` [EDTA] the “rate of ILP activation (dose response, free AFC generated per minute per milligram of extract)” value [1] was “decreases the rate of ILP activation”.
